Article PMC4336331, “Novel Receptor-Derived Cyclopeptides to Treat Heart Failure Caused by Anti-β1-Adrenoceptor Antibodies in a Human-Analogous Rat Model” (PLoS ONE, 2015)
Peptide text beside a SMILES is read from it.

How the values were obtained:
[1] = system: β1EC2-specific memory B-cells; experiment: Flow cytometric detection of β1EC2-specific memory B-cells; type: in vivo, Lewis/CrlBR rats; settings: Fig. 5K and L
Procedure: (c) For flow cytometric detection of β 1 EC2-specific memory B-cells, splenocytes (1.5x10^8 cells per staining, 2x10^7 cells/ ml in PBS/0.1% BSA/0.02% NaN3) were first labelled with anti-rat IgG(Fc) PE (Jackson Immunoresearch, West Grove, USA) followed by three washings and a blocking step using normal rat serum plus GST (1:500 and 2 μg/ ml, respectively). After another washing step, OX-33 FITC (BD, Heidelberg, Germany, 0.1 μg/ml) and DyLight649-labelled GST/β1EC2-FP (0.2 μg/ml) were added. All incubations were carried out for 15 min on ice and in the dark. Finally, the cells were washed three times and analysed on a FACS-Calibur (BD, Heidelberg, Germany) and FlowJo Software (Tree Star, Ashland, USA) was used to analyse the data.
(§1) Fig 5 Immunology of cyclic β1EC2-peptides: fate of β1EC2-specific T- and B-cells. (A) Titer-course of anti-β1EC2-abs in β1EC2-CP-treated rats during the first 6 months of the prevention-study before and 24h after cyclopeptide-injection. Time-points of antigen-boosts are indicated by (red) lines, time-points of CP-injections by (green) arrows. For better readability error-bars are not shown in the graph. (B) Pre-experiments (antigenic recall-assays) performed with CD4^+ T-cells prepared from spleens of GST/β1EC2 fusion-protein (FP)-immunised untreated (n = 3, black) vs. 0.9%NaCl-injected control rats (n = 3, white). […]

[2] = system: functional β1EC2-specific memory B-cells; experiment: Adoptive B-cell transfer and suboptimal immunisation; type: in vivo, Lewis rats; settings: purified B-cells from immunised treated donors into antigen-naïve recipients, then 12.5μg β1EC2/GST-FP in adjuvans (Fig. 5M)
Procedure: (d) To detect functional β 1 EC2-specific memory B-cells in vivo, B-cells were first purified from total splenocytes by negative depletion using mAb V65, R73, 10/78 and WT.5 plus magnetic beads (MACS, Miltenyi Biotec, Bergisch-Gladbach, Germany) yielding average purities of 87%. 2.6x10^7 purified B cells were injected in 250 μl PBS i.v. into antigen-naïve syngeneic male Lewis rats. To selectively trigger the transferred memory B-cells, recipient rats were immunised after five days with only 12.5 μg GST/β1EC2-FP in adjuvans per animal. Serum was collected for antibody detection just before as well as three and seven days after immunisation.
as §1

heart rate = experiment: Bisoprolol titration pre-experiments, heart rate; type: in vivo, Lewis/CrlBR rats
Procedure: In brief, n = 76 two months old Lewis/CrlBR rats were either s.c. immunised with 50 μg β1EC2/GST-FP, or n = 38 rats were control-injected with 0.9% NaCl (t = 0). To maintain high anti-β1EC2-titers, all immunised rats were boosted with β1EC2/GST-FP (or 0.9% NaCl) every month over 20 months as previously described. Application of the different linear or cyclic β1-AR peptides (corresponding to the primary AA-sequence of either the first (β1EC1) or the 2nd extra-cellular β1-AR loop (β1EC2)) or the β1-receptor blocker bisoprolol was initiated either 6 weeks after the 1st immunisation (i.e. 15 days after the 1st boost, prevention-study), or 8.5 months after the 1st immunisation (therapy-study).

| SMILES | β1EC2-specific memory B-cells by flow cytometry, in words [1] | anti-β1EC2-abs in serum of recipient rats after B-cell transfer, in words [2] | decrease of heart rate (heart rate; oral dose 15 mg/kg/day derived from titration pre-experiments [5/10/15mg]) | heart rate after bisoprolol (heart rate; titration pre-experiments [5/10/15mg], 15mg oral, from 236±10 bpm, n = 5, p<0.005) [bpm] |
| --- | --- | --- | --- | --- |
| CC(C)[C@@H]1NC(=O)[C@H](Cc2ccccc2)NC(=O)[C@H](CC(=O)O)NC(=O)[C@H](CS)NC(=O)[C@H](CS)NC(=O)[C@H](CCCCN)NC(=O)[C@@H]2CCCN2C(=O)[C@H](CC(=O)O)NC(=O)[C@H](CC(N)=O)NC(=O)[C@H](Cc2ccc(O)cc2)NC(=O)[C@H](CS)NC(=O)[C@H](CCCNC(=N)N)NC(=O)[C@H](CCCNC(=N)N)NC(=O)[C@H](C)NC(=O)[C@H](CCC(=O)O)NC(=O)[C@H](CC(=O)O)NC(=O)[C@H](CO)NC(=O)[C@H](CCC(=O)O)NC(=O)[C@H](C)NC(=O)[C@H](CCCNC(=N)N)NC(=O)[C@H](C)NC(=O)[C@H](CCC(N)=O)NC(=O)CNC(=O)[C@H](CCCNC(=N)N)NC(=O)[C@H](CC(N)=O)NC(=O)[C@H]([C@@H](C)O)NC1=O [β1EC2-CP] (cyclo(AESDEARRCYNDPKCCDFVTNRGQAR)) | complete depletion | did not induce detectable amounts | – | – |
| CC(C)NCC(O)COc1ccc(COCCOC(C)C)cc1 (stereo not shown) [bisoprolol, reference compound] | – | – | at least 10% | 205±9 |
